“And” between values parts separate entries of the source, which are not always exact repeats. Equal entries are not always repeated. Each block holds one compound with its values, some of them ahead of it.
System: 422866-222-R5-J1-PDC complex spheroids viability
Assay: Anticancer human tumor 422866-222-R5-J1-PDC patient-derived pancreatic adenocarcinoma cell line growth inhibition [RAS]
Details: for viability, T/C: stronger effect = lower value
Method in brief: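 Multi-cell-type spheroids: tumor cells plus HUVEC endothelial cells and mesenchymal stem cells. RAS-pathway inhibitors were combined with targeted agents, each dosed in half-log steps down from clinical Cmax, or from 10 microM when Cmax was unknown.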

[1] = curve of first compound, second compound 0.00316 µM
[2] = curve of first compound, second compound 0.01 µM
[3] = curve of first compound, second compound 0.0316 µM
[4] = curve of first compound, second compound 0.1 µM
[5] = curve of first compound, second compound 0.316 µM
[6] = curve of first compound, second compound 1 µM
[7] = second compound 0.00316 µM, first compound 0.0316 µM
[8] = second compound 0.00316 µM, first compound 0.1 µM
[9] = second compound 0.01 µM, first compound 0.0316 µM
[10] = second compound 0.01 µM, first compound 0.1 µM
[11] = second compound 0.0316 µM, first compound 0.0316 µM
[12] = second compound 0.0316 µM, first compound 0.1 µM
[13] = second compound 0.1 µM, first compound 0.0316 µM
[14] = second compound 0.1 µM, first compound 0.1 µM
[15] = second compound 0.316 µM, first compound 0.0316 µM
[16] = second compound 0.316 µM, first compound 0.1 µM
[17] = second compound 1 µM, first compound 0.0316 µM
[18] = second compound 1 µM, first compound 0.1 µM
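Also: spheroids exposed to compounds for 7 days.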
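For viability, T/C in this document: 100% = DMSO vehicle control viability.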

IC50 [1]: < 0.316 nM
IC50 [2]: < 0.316 nM
IC50 [3]: < 0.316 nM
IC50 [4]: < 0.316 nM
IC50 [5]: < 0.316 nM
IC50 [6]: < 0.316 nM
Compound: CC(C)n1nc(-c2ccc3oc(N)nc3c2)c2c(N)ncnc21 + C=CC(=O)N1CCN(c2nc(OCC3CCCN3C)nc3c(F)c(-c4nc(N)cc(C)c4C(F)(F)F)c(Cl)cc23)C(C)C1
viability, T/C (second compound 0.00316 µM, first compound 0.000316 µM): 34.9%
viability, T/C (second compound 0.00316 µM, first compound 0.001 µM): 35.1%
viability, T/C (second compound 0.00316 µM, first compound 0.00316 µM): 30.5%
viability, T/C (second compound 0.00316 µM, first compound 0.01 µM): 23.2%
viability, T/C [7]: 18.3%
viability, T/C [8]: 14.8%
viability, T/C (second compound 0.01 µM, first compound 0.000316 µM): 30.3%
viability, T/C (second compound 0.01 µM, first compound 0.001 µM): 28.9%
viability, T/C (second compound 0.01 µM, first compound 0.00316 µM): 22.9%
viability, T/C (second compound 0.01 µM, first compound 0.01 µM): 19.9%
viability, T/C [9]: 14.3%
viability, T/C [10]: 14.1%
viability, T/C (second compound 0.0316 µM, first compound 0.000316 µM): 29.9%
viability, T/C (second compound 0.0316 µM, first compound 0.001 µM): 26.5%
viability, T/C (second compound 0.0316 µM, first compound 0.00316 µM): 23.4%
viability, T/C (second compound 0.0316 µM, first compound 0.01 µM): 18.2%
viability, T/C [11]: 14%
viability, T/C [12]: 12.3%
viability, T/C (second compound 0.1 µM, first compound 0.000316 µM): 25.5%
viability, T/C (second compound 0.1 µM, first compound 0.001 µM): 22.9%
viability, T/C (second compound 0.1 µM, first compound 0.00316 µM): 18.1%
viability, T/C (second compound 0.1 µM, first compound 0.01 µM): 18.3%
viability, T/C [13]: 16.8%
viability, T/C [14]: 11.3%
viability, T/C (second compound 0.316 µM, first compound 0.000316 µM): 25%
viability, T/C (second compound 0.316 µM, first compound 0.001 µM): 20.9%
viability, T/C (second compound 0.316 µM, first compound 0.00316 µM): 20.6%
viability, T/C (second compound 0.316 µM, first compound 0.01 µM): 18.1%
viability, T/C [15]: 13.6%
viability, T/C [16]: 10.5%
viability, T/C (second compound 1 µM, first compound 0.000316 µM): 21.3%
viability, T/C (second compound 1 µM, first compound 0.001 µM): 20.2%
viability, T/C (second compound 1 µM, first compound 0.00316 µM): 24.6%
viability, T/C (second compound 1 µM, first compound 0.01 µM): 17.2%
viability, T/C [17]: 17.3%
viability, T/C [18]: 13.8%

IC50 [1]: < 31.6 nM
IC50 [2]: < 31.6 nM
IC50 [3]: < 31.6 nM
IC50 [4]: < 31.6 nM
IC50 [5]: < 31.6 nM
IC50 [6]: < 31.6 nM
Compound: NC1c2ccccc2OC12CCN(c1cnc3c(N4CCCc5ncccc54)n[nH]c3n1)CC2 (stereo not drawn) + C=CC(=O)N1CCN(c2nc(OCC3CCCN3C)nc3c(F)c(-c4nc(N)cc(C)c4C(F)(F)F)c(Cl)cc23)C(C)C1
viability, T/C [7]: 21.3%
viability, T/C [8]: 17.9%
viability, T/C (second compound 0.00316 µM, first compound 0.316 µM): 18.1%
viability, T/C (second compound 0.00316 µM, first compound 1 µM): 16.3%
viability, T/C (second compound 0.00316 µM, first compound 3.16 µM): 13.4%
viability, T/C (second compound 0.00316 µM, first compound 10 µM): 16.3%
viability, T/C [9]: 20.1%
viability, T/C [10]: 17.6%
viability, T/C (second compound 0.01 µM, first compound 0.316 µM): 13.2%
viability, T/C (second compound 0.01 µM, first compound 1 µM): 16.3%
viability, T/C (second compound 0.01 µM, first compound 3.16 µM): 15.4%
viability, T/C (second compound 0.01 µM, first compound 10 µM): 16.6%
viability, T/C [11]: 20.4%
viability, T/C [12]: 18.5%
viability, T/C (second compound 0.0316 µM, first compound 0.316 µM): 13.9%
viability, T/C (second compound 0.0316 µM, first compound 1 µM): 14.5%
viability, T/C (second compound 0.0316 µM, first compound 3.16 µM): 15.9%
viability, T/C (second compound 0.0316 µM, first compound 10 µM): 14.8%
viability, T/C [13]: 18.3%
viability, T/C [14]: 15.1%
viability, T/C (second compound 0.1 µM, first compound 0.316 µM): 15.3%
viability, T/C (second compound 0.1 µM, first compound 1 µM): 12.8%
viability, T/C (second compound 0.1 µM, first compound 3.16 µM): 16.3%
viability, T/C (second compound 0.1 µM, first compound 10 µM): 14.2%
viability, T/C [15]: 18.4%
viability, T/C [16]: 16.6%
viability, T/C (second compound 0.316 µM, first compound 0.316 µM): 14.5%
viability, T/C (second compound 0.316 µM, first compound 1 µM): 13.6%
viability, T/C (second compound 0.316 µM, first compound 3.16 µM): 14.2%
viability, T/C (second compound 0.316 µM, first compound 10 µM): 12.9%
viability, T/C [17]: 18.7%
viability, T/C [18]: 14.1%
viability, T/C (second compound 1 µM, first compound 0.316 µM): 16.4%
viability, T/C (second compound 1 µM, first compound 1 µM): 15.8%
viability, T/C (second compound 1 µM, first compound 3.16 µM): 14.9%
viability, T/C (second compound 1 µM, first compound 10 µM): 15.9%

IC50 (curve of compound): 290 nM and < 31.6 nM
Compound: NC1c2ccccc2OC12CCN(c1cnc3c(N4CCCc5ncccc54)n[nH]c3n1)CC2 (stereo not drawn)
viability, T/C (compound 0.0316 µM): 51.6% [middle of 4 runs]
viability, T/C (compound 0.1 µM): 45.3% [middle of 4 runs]
viability, T/C (compound 0.316 µM): 40.2% [middle of 4 runs]
viability, T/C (compound 1 µM): 40% [middle of 4 runs]
viability, T/C (compound 3.16 µM): 36.7% [middle of 4 runs]
viability, T/C (compound 10 µM): 33.8% [middle of 4 runs]

IC50 (curve of compound): 2.36 µM [middle of 4 runs]
Compound: CCC(CC)c1cc(NC2CCC(N)C2)n2nccc2n1 (stereo not drawn)
viability, T/C (compound 0.0316 µM): 99.2% [middle of 4 runs]
viability, T/C (compound 0.316 µM): 116% [middle of 4 runs]
viability, T/C (compound 1 µM): 106% [middle of 4 runs]
viability, T/C (compound 3.16 µM): 29.1% [middle of 4 runs]
viability, T/C (compound 10 µM): 37.6% [middle of 4 runs]

IC50 (curve of compound): > 1000 nM
Compound: CCN1CCN(Cc2ccc(Nc3ncc(F)c(-c4cc(F)c5nc(C)n(C(C)C)c5c4)n3)nc2)CC1
viability, T/C (compound 0.00316 µM): 93% [middle of 4 runs]
viability, T/C (compound 0.0316 µM): 90.8% [middle of 4 runs]
viability, T/C (compound 0.1 µM): 77.8% [middle of 4 runs]
viability, T/C (compound 0.316 µM): 78% [middle of 4 runs]
viability, T/C (compound 1 µM): 87.2% [middle of 4 runs]

Reference: PubChem BioAssay AID2060901 (Molecular Pharmacology Branch, DTP, NCI, 2025)
